Results: patent US20160213733A1, “CHARACTERIZATION OF RICE” (Phytoquest Limited, priority 2013, published 2016)

Experiments:
[1] = system: digestive enzymes of rat intestinal acetone powder extract; test: Rat digestive enzyme assays, all activities measured; assay type: biochemical
Description: (§1) Rat intestinal acetone powder extract was purchased from Sigma (11630 lot SLBB6071V) to give results more closely related to digestion. 100 mg of the acetone powder was mixed with 1 ml cold PBS homogenised, sonicated briefly and then spun at 12K rpm for 3 mins.

[2] = in vivo; cited from earlier work
rodent pancreatic cell = rodent pancreatic cell studies; cited from earlier work
[3] = system: alpha-glucosidase activity of rat intestinal acetone powder extract; test: Rat digestive enzyme assay, PNP α-D-glucoside substrate; assay type: biochemical
Description: as §1

Structure (SMILES) | inhibition of the digestive enzymes / activities measured (in words) [1] | effective dose against health risks of excessive intake of fast-digestible carbohydrates [2] | postprandial blood glucose (in words) [2] | glucose induced-insulin secretion (in words) (rodent pancreatic cell) | inhibition of the alpha-glucosidase activity (in words) [3]
OC[C@H]1NCC[C@H](O)[C@H]1O [3,4-diepi fagomine, 3,4-diepifagomine] | inhibited none of the activities measured | – | – | – | –
OC[C@H]1NCC[C@H](O)[C@@H]1O [3-epifagomine] | inhibited none of the activities measured | – | – | – | –
OC[C@H]1NCC[C@@H](O)[C@@H]1O [fagomine, 1,2-dideoxynojirimycin] | – | 1 mg/kg | lowers postprandial blood glucose | potentiate glucose induced-insulin secretion | inhibited
